The text below walks through data of US20100256104A1, “NOVEL AMIDE COMPOUNDS” (ASTRAZENECA R&D, priority 2009, published 2010).

The target of the assay is T1, recombinant human GR (Homo sapiens, UniProt P04150).
T1 construct: purchased Panvera/Invitrogen P2812 (kit P2893)
T1 sequence (P04150 1-777): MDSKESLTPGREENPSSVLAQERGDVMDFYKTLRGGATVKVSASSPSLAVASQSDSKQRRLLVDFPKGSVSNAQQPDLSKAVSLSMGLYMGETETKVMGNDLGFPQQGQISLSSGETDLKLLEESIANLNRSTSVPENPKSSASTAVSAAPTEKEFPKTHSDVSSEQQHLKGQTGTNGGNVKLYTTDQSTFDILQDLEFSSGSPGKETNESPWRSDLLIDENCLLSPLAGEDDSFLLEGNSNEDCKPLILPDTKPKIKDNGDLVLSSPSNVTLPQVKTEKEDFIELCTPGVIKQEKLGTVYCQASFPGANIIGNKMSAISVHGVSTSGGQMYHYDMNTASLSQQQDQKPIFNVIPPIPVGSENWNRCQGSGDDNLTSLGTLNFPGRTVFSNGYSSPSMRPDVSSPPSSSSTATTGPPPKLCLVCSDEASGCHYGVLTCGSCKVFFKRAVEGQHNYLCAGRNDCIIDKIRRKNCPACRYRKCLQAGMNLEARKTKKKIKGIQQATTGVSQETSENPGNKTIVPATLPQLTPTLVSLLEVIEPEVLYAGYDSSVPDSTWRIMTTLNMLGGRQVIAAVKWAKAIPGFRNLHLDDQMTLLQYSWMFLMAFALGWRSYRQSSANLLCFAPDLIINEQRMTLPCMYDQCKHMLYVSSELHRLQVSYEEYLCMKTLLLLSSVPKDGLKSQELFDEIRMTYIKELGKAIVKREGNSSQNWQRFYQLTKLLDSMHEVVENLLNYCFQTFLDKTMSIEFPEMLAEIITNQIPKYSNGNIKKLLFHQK
The assay is described as follows: Human Glucocorticoid Receptor (GR) Assay, fluorescence polarization competition with GS Red tracer. The note with it: 2 hours at room temperature, 100% control 10 μM Dexamethasone, XLfit model 205, read-out: Inhibition of GR binding, IC50. In outline: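 Fluorescence polarization competition: recombinant human GR with GS Red tracer, stabilizing peptide and DTT in potassium phosphate/sodium molybdate/EDTA buffer. 2 h in dark at room temperature, read at ex 530/em 590 nm. Controls: DMSO (0%) and 10 μM dexamethasone (100%).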
(Polarisation of emitted light reports the rotation of a fluorescent probe.)

In the case of `CSCCNC(=O)c1cccc(-n2ncc3c2C=C2CC[C@@H]4[C@H]([C@@H](O)C[C@@]5(C)[C@H]4CC[C@]5(OC(=O)C4CC4)C(=O)SCF)[C@@]2(C)C3)c1` [Example 10, (1R,3aS,3bS,10aR,10bS,11S,12aS)-1-{[(Fluoromethyl)sulfanyl]carbonyl}-11-hydroxy-10a,12a-dimethyl-7-(3-{[2-(methylsulfanyl)ethyl]carbamoyl}phenyl)-1,2,3,3a,3b,4,5,7,10,10a,10b,11,12,12a-tetradecahydrocyclopenta[5,6]naphtho[1,2-f]indazol-1-yl cyclopropanecarboxylate], the IC50 came out at 1.5 nM.
For the compound `COCCNC(=O)c1cccc(-n2ncc3c2C=C2CC[C@@H]4[C@H]([C@@H](O)C[C@@]5(C)[C@H]4CC[C@]5(OC(=O)C4CC4)C(=O)SCF)[C@@]2(C)C3)c1` [Example 5, (1R,3aS,3bS,10aR,10bS,11S,12aS)-1-{[(Fluoromethyl)sulfanyl]carbonyl}-11-hydroxy-7-{3-[(2-methoxyethyl)carbamoyl]phenyl}-10a,12a-dimethyl-1,2,3,3a,3b,4,5,7,10,10a,10b,11,12,12a-tetradecahydrocyclopenta[5,6]naphtho[1,2-f]indazol-1-yl cyclopropanecarboxylate], the IC50 was determined as 0.98 nM.
For `C[C@H]1C[C@@H]2[C@H]([C@@H](O)C[C@@]3(C)[C@H]2CC[C@]3(OC(=O)C2CC2)C(=O)SCF)[C@@]2(C)Cc3cnn(-c4cccc(C(=O)NCC(N)=O)c4)c3C=C12` [Example 31, (1R,3aS,3bS,5S, 10aR,10bS,11S,12aS)-7-{3-[(2-amino-2-oxoethyl)carbamoyl]phenyl}-1-{(fluoromethyl)sulfanyl] carbonyl}-11-hydroxy-5,10a,12a-trimethyl-1,2,3,3a,3b,4,5,7,10, 10a,10b,11,12,12a-tetradecahydrocyclo-penta[5,6]naphtho [1,2-f]indazol-1-yl cyclopropanecarboxylate], the IC50 amounted to 1.2 nM.
On to `COCC(=O)O[C@]1(C(=O)SCF)[C@H](C)C[C@H]2[C@@H]3CCC4=Cc5c(cnn5-c5cccc(C(=O)NCC(N)=O)c5)C[C@]4(C)[C@@]3(F)[C@@H](O)C[C@@]21C` [Example 45, (1R,2R,3aS,3bS, 10aS,10bR,11S,12aS)-7-{3-[(2-amino-2-oxoethyl)carbamoyl]phenyl}-10b-fluoro-1-{[(fluoromethyl)sulfanyl]carbonyl}-11-hydroxy-2,10a,12a-trimethyl-1,2,3,3a,3b,4,5,7,10, 10a,10b,11,12,12a-tetradecahydrocyclo-penta[5,6]naphtho [1,2-f]indazol-1-yl methoxyacetate], for which the IC50 came out at 5.3 nM.
With `COCCNC(=O)c1cccc(-n2ncc3c2C=C2CC[C@@H]4[C@H]([C@@H](O)C[C@@]5(C)[C@H]4CC[C@]5(OC(=O)COC)C(=O)SCF)[C@@]2(C)C3)c1` [Example 3, (1R,3aS,3bS,10aR,10bS,11S,12aS)-1-{[(Fluoromethyl)sulfanyl]carbonyl}-11-hydroxy-7-{3-[(2-methoxyethyl)carbamoyl]phenyl}-10a,12a-dimethyl-1,2,3,3a,3b,4,5,7,10,10a,10b,11,12,12a-tetradecahydrocyclopenta[5,6]naphtho[1,2-f]indazol-1-yl methoxyacetate], the IC50 worked out at 1.6 nM.
Regarding `COCC(=O)O[C@]1(C(=O)SCC#N)CC[C@H]2[C@@H]3CCC4=Cc5c(cnn5-c5cccc(C(=O)N6CCC[C@@H]6C(N)=O)c5)C[C@]4(C)[C@@]3(F)[C@@H](O)C[C@@]21C` [Example 57, (1R,3aS,3bS,10aS, 10bR,11S,12aS)-7-(3-{[(2R)-2-carbamoyl-pyrrolidin-1-yl]carbonyl}phenyl)-1-{[(cyanomethyl)sulfanyl]carbonyl}-10b-fluoro-11-hydroxy-10a,12a-dimethyl-1,2,3,3a,3b,4,5,7,10, 10a,10b,11,12,12a-tetradecahydrocyclo-penta[5,6]naphtho [1,2-f]indazol-1-yl methoxyacetate], the IC50 worked out at 10 nM.
For `CSC(=O)[C@@]1(OC(=O)C2CC2)CC[C@H]2[C@@H]3CCC4=Cc5c(cnn5-c5cccc(C(=O)N6CCC[C@@H]6C(N)=O)c5)C[C@]4(C)[C@@]3(F)[C@@H](O)C[C@@]21C` [Example 53, (1R,3aS,3bS,10aS,10bR,11S,12aS)-7-(3-{[(2R)-2-carbamoylpyrrolidin-1-yl]carbonyl}phenyl)-10b-fluoro-11-hydroxy-10a,12a-dimethyl-1-[(methylsulfanyl)carbonyl]-1,2,3,3a,3b,4,5,7,10,10a,10b,11,12,12a-tetradecahydrocyclopenta[5,6]naphtho[1,2-f]indazol-1-yl cyclopropanecarboxylate] the value was 2.5 nM; for `COCC(=O)O[C@]1(C(=O)SCC#N)CC[C@H]2[C@@H]3CCC4=Cc5c(cnn5-c5cccc(C(=O)NCC(N)=O)c5)C[C@]4(C)[C@H]3[C@@H](O)C[C@@]21C` [Example 51, (1R,3aS,3bS,10aR, 10bS,11S,12aS)-7-{3-[(2-amino-2-oxoethyl)carbamoyl]phenyl}-1-{[(cyanomethyl)sulfanyl]carbonyl}-11-hydroxy-10a,12a-dimethyl-1,2,3,3a,3b,4,5,7,10, 10a,10b,11,12,12a-tetradecahydrocyclo-penta[5,6]naphtho [1,2-f]indazol-1-yl methoxyacetate], 2.8 nM; for `C[C@H]1C[C@@H]2[C@H]([C@@H](O)C[C@@]3(C)[C@H]2CC[C@]3(OC(=O)[C@H]2CCCO2)C(=O)SCF)[C@@]2(C)Cc3cnn(-c4cccc(C(=O)NCC(N)=O)c4)c3C=C12` [Example 30, (1R,3aS,3bS,5S, 10aR,10bS,11S,12aS)-7-{3-[(2-amino-2-oxoethyl)carbamoyl]phenyl}-1-{[(fluoromethyl)sulfanyl]carbonyl}-11-hydroxy-5,10a,12a-trimethyl-1,2,3,3a,3b,4,5,7,10, 10a,10b,11,12,12a-tetradecahydrocyclo-penta[5,6]naphtho [1,2-f]indazol-1-yl (2R)-tetrahydrofuran-2-carboxylate], 2.2 nM.
As for `COCCNC(=O)c1cccc(-n2ncc3c2C=C2CC[C@@H]4[C@H]([C@@H](O)C[C@@]5(C)[C@H]4CC[C@]5(OC(=O)C4CC4)C(=O)SCC#N)[C@@]2(C)C3)c1` [Example 4, (1R,3aS,3bS,10aR,10bS,11S,12aS)-1-{[(Cyanomethyl)sulfanyl]carbonyl}-11-hydroxy-7-{3-[(2-methoxyethyl)carbamoyl]phenyl}-10a,12a-dimethyl-1,2,3,3a,3b,4,5,7,10,10a,10b,11,12,12a-tetradecahydrocyclopenta[5,6]naphtho[1,2-f]indazol-1-yl cyclopropanecarboxylate], the IC50 was determined as 0.91 nM.
For `C[C@]12Cc3cnn(-c4cccc(C(=O)N5CCC[C@@H]5C(N)=O)c4)c3C=C1CC[C@@H]1[C@@H]2[C@@H](O)C[C@@]2(C)[C@H]1CC[C@]2(OC(=O)c1cocn1)C(=O)SCF` [Example 50, (1R,3aS,3bS,10aR, 10bS,11S,12aS)-7-(3-{[(2R)-2-carbamoyl-pyrrolidin-1-yl]carbonyl}phenyl)-1-{[(fluoromethyl)sulfanyl]carbonyl}-11-hydroxy-10a,12a-dimethyl-1,2,3,3a,3b,4,5,7,10, 10a,10b,11,12,12a-tetradecahydrocyclo-penta[5,6]naphtho [1,2-f]indazol-1-yl 1,3-oxazole-4-carboxylate] the value was 8.2 nM; for `CCC(=O)O[C@]1(C(=O)SCC#N)CC[C@H]2[C@@H]3CCC4=Cc5c(cnn5-c5cccc(C(=O)NCCSC)c5)C[C@]4(C)[C@H]3[C@@H](O)C[C@@]21C` [Example 6, (1R,3aS,3bS,10aR,10bS,11S,12aS)-1-{[(Cyanomethyl)sulfanyl]carbonyl}-11-hydroxy-10a,12a-dimethyl-7-(3-{[2-(methylsulfanyl)ethyl]carbamoyl}phenyl)-1,2,3,3a,3b,4,5,7,10,10a,10b,11,12,12a-tetradecahydrocyclopenta[5,6]naphtho[1,2-f]indazol-1-yl propanoate], 1.7 nM; for `COCC(=O)O[C@]1(C(=O)SCF)CC[C@H]2[C@@H]3CCC4=Cc5c(cnn5-c5cccc(C(=O)N6CCC[C@@H]6C(N)=O)c5)C[C@]4(C)[C@@]3(F)[C@@H](O)C[C@@]21C` [Example 15, (1R,3aS,3bS,10aS,10bR,11S,12aS)-7-(3-{[(2R)-2-Carbamoylpyrrolidin-1-yl]carbonyl}phenyl)-10b-fluoro-1-{[(fluoromethyl)sulfanyl]carbonyl}-11-hydroxy-10a,12a-dimethyl-1,2,3,3a,3b,4,5,7,10,10a,10b,11,12,12a-tetradecahydrocyclopenta[5,6]naphtho[1,2-f]indazol-1-yl methoxyacetate], 4.3 nM.

As a reminder, the IC50 is the concentration needed to halve the response being measured.
